# Measurements from US20090291048A1, “LEUKOCYTE-BINDING POLYPEPTIDES AND USES THEREOF” (Baker IDI Heart and Diabetes Institute Holdings Limited, priority 2005, published 2009).
# Tested on: GPIIb/IIIa (αIIbβ3, CD41/CD61), native or GFFKR-deleted, on CHO cells
# Assay: Flow cytometry cross-reactivity with GPIIb/IIIa-expressing CHO cells
# Assay type: binding
# Conditions: CHO cells with native (non-activated) or GFFKR-deleted (activated) GPIIb/IIIa
# Method: Cross-reactivity with another fibrinogen binding integrin was assessed in flow cytometry using CHO cells expressing either a GFFKR-deleted and thereby activated GPIIb/IIIa or the native and thereby non-activated platelet integrin GPIIb/IIIa (details of cell generation have been described previously).^30,31 The expression of the activated conformation was determined by the binding of the activation-specific antibody Pac-1. MAN-1 binding was measured by an Alexa Fluor 488-conjugated anti-His-tag secondary antibody. […] Thus, no cross-reactivity to GPIIb/IIIa was seen. A typical result out of three experiments is shown.
# Since one of the Mac-1 ligands, fibrinogen, also binds to the platelet integrin GPIIb/IIIa (αIIIbβ3, CD41/CD61) potential cross-reactivity of MAN-1 with this integrin was also evaluated. For this purpose, recombinant CHO cell lines were used, expressing native, non-activated and GFFKR-deleted, activated GPIIb/IIIa as described elsewhere (O'Toole et al J. Cell Biol. 1994; 124:1047-1059; Peter et al, J Exp Med. 1995; 181:315-326; Tadokoro et al Science. 2003; 302:103-106).
# GPIIb/IIIa (αIIbβ3, CD41/CD61), native or GFFKR-deleted, on CHO cells, sequence (P08514 32-887 limits assumed, stated change not applied): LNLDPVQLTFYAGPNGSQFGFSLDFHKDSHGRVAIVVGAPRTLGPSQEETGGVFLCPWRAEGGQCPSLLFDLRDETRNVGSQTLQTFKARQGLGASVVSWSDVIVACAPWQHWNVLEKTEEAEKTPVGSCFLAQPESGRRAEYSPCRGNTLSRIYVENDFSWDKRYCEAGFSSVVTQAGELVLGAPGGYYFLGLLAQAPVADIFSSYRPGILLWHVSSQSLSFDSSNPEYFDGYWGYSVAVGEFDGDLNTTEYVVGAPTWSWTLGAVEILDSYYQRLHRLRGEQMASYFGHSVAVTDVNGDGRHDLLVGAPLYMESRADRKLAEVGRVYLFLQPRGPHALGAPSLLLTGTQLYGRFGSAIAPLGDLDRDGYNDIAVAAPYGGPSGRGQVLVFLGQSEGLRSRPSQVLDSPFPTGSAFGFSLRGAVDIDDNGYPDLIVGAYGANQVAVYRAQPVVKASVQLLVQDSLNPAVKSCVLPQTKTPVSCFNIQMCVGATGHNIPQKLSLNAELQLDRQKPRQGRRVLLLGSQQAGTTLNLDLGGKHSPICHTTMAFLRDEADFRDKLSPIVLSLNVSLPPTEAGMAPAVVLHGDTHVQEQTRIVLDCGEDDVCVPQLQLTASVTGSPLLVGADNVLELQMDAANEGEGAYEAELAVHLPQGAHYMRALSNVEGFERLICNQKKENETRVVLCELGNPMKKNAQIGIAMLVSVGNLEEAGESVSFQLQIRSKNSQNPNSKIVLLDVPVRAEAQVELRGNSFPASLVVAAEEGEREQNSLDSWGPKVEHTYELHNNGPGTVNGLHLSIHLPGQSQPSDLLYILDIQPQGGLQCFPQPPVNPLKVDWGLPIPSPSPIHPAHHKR
# GPIIb/IIIa (αIIbβ3, CD41/CD61), native or GFFKR-deleted, on CHO cells, sequence (P08514 891-1019 limits assumed, stated change not applied): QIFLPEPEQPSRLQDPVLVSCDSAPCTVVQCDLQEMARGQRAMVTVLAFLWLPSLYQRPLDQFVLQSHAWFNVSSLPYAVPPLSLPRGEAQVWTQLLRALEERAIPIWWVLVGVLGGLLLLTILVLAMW
# GPIIb/IIIa (αIIbβ3, CD41/CD61), native or GFFKR-deleted, on CHO cells, sequence (P05106 27-788, stated change not applied, further chain): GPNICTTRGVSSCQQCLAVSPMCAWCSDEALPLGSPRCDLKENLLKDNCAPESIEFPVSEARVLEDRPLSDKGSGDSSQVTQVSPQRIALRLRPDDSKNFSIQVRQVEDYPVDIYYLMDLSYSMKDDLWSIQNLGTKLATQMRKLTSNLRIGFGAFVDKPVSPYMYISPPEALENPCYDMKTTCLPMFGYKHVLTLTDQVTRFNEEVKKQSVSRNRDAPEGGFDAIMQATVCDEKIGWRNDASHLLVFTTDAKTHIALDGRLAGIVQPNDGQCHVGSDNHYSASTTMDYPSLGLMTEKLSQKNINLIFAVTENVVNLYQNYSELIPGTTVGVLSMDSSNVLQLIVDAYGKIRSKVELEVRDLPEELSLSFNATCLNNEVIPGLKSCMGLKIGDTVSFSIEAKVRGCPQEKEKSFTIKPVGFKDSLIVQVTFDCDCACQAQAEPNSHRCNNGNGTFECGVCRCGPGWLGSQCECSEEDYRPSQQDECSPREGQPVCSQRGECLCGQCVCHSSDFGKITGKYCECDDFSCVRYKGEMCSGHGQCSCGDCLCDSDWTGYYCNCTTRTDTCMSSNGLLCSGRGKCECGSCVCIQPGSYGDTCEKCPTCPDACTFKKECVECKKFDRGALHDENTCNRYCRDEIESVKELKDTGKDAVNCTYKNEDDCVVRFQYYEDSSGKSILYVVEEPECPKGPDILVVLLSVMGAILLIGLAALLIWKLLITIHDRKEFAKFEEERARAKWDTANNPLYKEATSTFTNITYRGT
substance,measurement,value
Pac-1,Binding to GPIIb/IIIa,binds to the activated GPIIb/IIIa
